{"source": "patent US20250049776A1", "about": "“AUTOPHAGY INDUCING COMPOUNDS AND USES THEREOF, IN PARTICULAR FOR A SYSTEMIC TREATMENT OF DISEASES AND CONDITIONS” (Samsara Therapeutics Inc., priority 2021, published 2025)", "test_system": "dopaminergic Tyrosine hydroxylase (TH)-positive neurons injured with MPTP", "assay": "Cellular model of Parkinson's disease (MPTP/MPP+ injury of primary mesencephalic neurons)", "assay_type": "cell-based, Rat", "settings": "concentrations of 500 μM and 1 μM", "text": "This model (run by Neuro-Sys SAS, France) is based on a primary culture of dopaminergic Tyrosine hydroxylase (TH)-positive neurons injured with the dopaminergic neurons-specific toxin (DA-toxin) 1-methyl-4-phenyl-1,2,3,6 tetrahydropyridine (MPTP, a prodrug of MPP*) (Dauer and Przedborski, 2003). Any substances reducing DA-toxin neurotoxicity may be useful as a new therapeutic agent for the treatment or prevention of PD.\nPrimary culture of mesencephalic neurons: Rat dopaminergic neurons were cultured as described by Visanji et al., 2008 and Callizot et al., 2019. Briefly, pregnant female rat (Wistar) of 15 days of gestation were killed using a deep anesthesia with CO2 chamber and a cervical dislocation. The midbrains obtained from 15-day-old rat embryos (Janvier, France) were dissected under a microscope. The embryonic midbrains will be removed and placed in ice-cold medium of Leibovitz (L15) containing 2% of Penicillin-Streptomycin (PS) and 1% of bovine serum albumin (BSA). The ventral portion of the mesencephalic flexure, a region of the developing brain rich in dopaminergic neurons, was used for the cell preparations.\nThe midbrains were dissociated by trypsinisation for 20 min at 37° C. (solution at a final concentration of 0.05% trypsin and 0.02% EDTA). The reaction was stopped by the addition of Dulbecco's modified Eagle's medium (DMEM) containing DNAase I grade II (0.5 mg/mL) and 10% of foetal calf serum (FCS). Cells were then mechanically dissociated by 3 passages through a 10 ml pipette. Cells were then centrifuged at 180×g for 10 min at +4° C. on a layer of BSA (3.5%) in L15 medium. The supernatant was discarded and the cell pellets re-suspended in a defined culture medium consisting of Neurobasal supplemented with B27 (2%), L-glutamine (2 mM) and 2% of PS solution and 10 ng/mL of Brain-derived neurotrophic factor (BDNF) and 1 ng/mL of Glial-Derived Neurotrophic Factor (GDNF). Viable cells were counted in a Neubauer cytometer using the trypan blue exclusion test. The cells were seeded at a density of 40,000 cells/well in 96 well-plates (pre-coated with poly-L-lysine) and maintained in a humidified incubator at 37° C. in 5% CO2/95% air atmosphere. Half of the medium was changed every 2 days with fresh medium. The wells of first and last lines and columns […] (to avoid any edge effect) and were be filled with sterile water.\nTest compounds and MPTP: • i) Pre-incubation. On day 6 of culture, the test compounds were dissolved in PBS or DMSO and incubated for 1 hour before the MPTP exposure. • ii) Injury. One hour after the application of test compound, MPTP was added to a final concentration of 4 μM, diluted in control medium still in presence of compounds/inhibitors for 48h. Test compounds were tested on one culture in 96-well plate (n=6 culture wells per condition).\nImmunostaining: TH and α-Synuclein. 48 Hours after intoxication, the cell culture supernatant was removed, and the cells were fixed by a solution of 4% paraformaldehyde in PBS, pH=7.3 for 20 min at room temperature. The cells were washed twice in PBS, and then permeabilized. Non-specific sites were blocked with a solution of PBS containing 0.1% of saponin and 1% FCS for 15 min at room temperature. The cultures were incubated with: (a) monoclonal anti-Tyrosine Hydroxylase (TH) antibody produced in mouse at dilution of 1/10000 in PBS containing 1% FCS, 0.1% saponin, for 2 hours at room temperature, and (b) polyclonal anti-alpha synuclein (α-synuclein) antibody produced in rabbit at dilution of 1/200 in PBS containing 1% FCS, 0.1% saponin, for 2 h at room temperature.\nAutomatic computer analysis. For each condition, 20 pictures (representing the whole well area) were automatically taken using ImageXpress® (Molecular Devices) at 10× magnification (20 pictures, for TH and α-synuclein into TH neurons) using the same acquisition parameters. From images, analyses was directly and automatically performed by MetaXpress® (Molecular Devices).", "note": "Structures can show the parent of a compound that is named as a salt."}
{"compound": "CCCN(C(=O)c1csc(-c2cnn(-c3ccccc3)c2)n1)[C@@H]1CCNC1", "note": "[Compound 171, (R)-2-(1-phenyl-1H-pyrazol-4-yl)-N-propyl-N-(pyrrolidin-3-yl)thiazole-4-carboxamide hydrochloride]", "values": [{"measurement": "decrease in α-syn area per dopaminergic TH positive neuron compared to MPP+ injury alone", "result": "> 18", "unit": "%"}, {"measurement": "increase in the length of the neurite network of dopaminergic TH positive neurons compared to the MPP+ injury alone", "result": "> 31", "unit": "%"}, {"measurement": "increase in the number of dopaminergic TH positive neurons compared to MPP+ injury alone", "result": "> 25", "unit": "%"}]}
